Laboratory results reported in patent publication US9409915B2, “Substituted aza-bicyclic imidazole derivatives useful as TRPM8 receptor modulators” (Janssen Pharmaceutica NV, priority 2010, dated 2016).
Structures can show the parent of a compound that is named as a salt. Where two headings read alike, the source gives them in different places. Values belong to the compound of their own block, whether it stands above or below them.

Target: canine TRPM8 (Canis lupus familiaris, UniProt Q1A7N1)
Experiment: In vitro canine TRPM8 functional assay (Ca2+-sensitive fluorescent dye, icilin activation)
Type: cell-based
Description: The functional activity of representative compounds of the formula (I) of the present invention was quantified by measuring changes in intracellular calcium concentration using a Ca^2+-sensitive fluorescent dye. The changes in fluorescent signal were monitored by a fluorescence plate reader, either a FLIPR™ (Molecular Devices) or FDSS (Hamamatsu).
HEK293 cells stably expressing canine TRPM8 were routinely grown as monolayers in Dulbecco's minimum essential medium supplemented with 10% FBS, 2 mM L-glutamine, 100 units/mL penicillin, 100 ug/mL streptomycin and 400 μg/mL G418. Cells were maintained in 5% CO2 at 37° C. At 24 hr prior to assay, cells were seeded in black wall, clear-base poly-D-lysine coated 384-well plates (BD Biosciences, NJ, USA) at a density of 5,000 cells per well in culture medium and grown overnight in 5% CO2 at 37° C. On assay day, growth media was removed, and cells were loaded with Calcium 3 Dye (Molecular Devices) for 35 min at 37° C., under 5% CO2 and then incubated for 25 min at room temperature and atmosphere. Subsequently, cells were tested for agonist-induced increases in intracellular Ca^2+ levels using FLIPR™ or FDSS. Cells were treated with compounds of the formula (I) at varying concentrations and intracellular Ca^2+ was measured for 5 min prior to the addition of icilin to each well to achieve a final concentration that produces an approximately 80% maximal response.
Maximal fluorescence intensity (FI) achieved upon addition of icilin was exported from the FLIPR™ or FDSS software and further analyzed using GraphPad Prism 3.02 (Graph Pad Software Inc., CA, U.S.A.). Basal FI was subtracted prior to normalizing data to percent of maximal response. Curves were generated using the average of quadruplicate wells for each data point using nonlinear regression of either sigmoidal dose response or sigmoidal dose response (variable slope). Finally, the EC50 and IC50 values were calculated with the best-fit curve determined by GraphPad Prism

[1] = 0.2 μM compound, HEK293 cells stably expressing canine TRPM8, icilin-induced Ca2+ response
[2] = HEK293 cells stably expressing canine TRPM8, icilin-induced Ca2+ response, eight-point concentration-response

Sequence of canine TRPM8 (Q1A7N1 1-1104): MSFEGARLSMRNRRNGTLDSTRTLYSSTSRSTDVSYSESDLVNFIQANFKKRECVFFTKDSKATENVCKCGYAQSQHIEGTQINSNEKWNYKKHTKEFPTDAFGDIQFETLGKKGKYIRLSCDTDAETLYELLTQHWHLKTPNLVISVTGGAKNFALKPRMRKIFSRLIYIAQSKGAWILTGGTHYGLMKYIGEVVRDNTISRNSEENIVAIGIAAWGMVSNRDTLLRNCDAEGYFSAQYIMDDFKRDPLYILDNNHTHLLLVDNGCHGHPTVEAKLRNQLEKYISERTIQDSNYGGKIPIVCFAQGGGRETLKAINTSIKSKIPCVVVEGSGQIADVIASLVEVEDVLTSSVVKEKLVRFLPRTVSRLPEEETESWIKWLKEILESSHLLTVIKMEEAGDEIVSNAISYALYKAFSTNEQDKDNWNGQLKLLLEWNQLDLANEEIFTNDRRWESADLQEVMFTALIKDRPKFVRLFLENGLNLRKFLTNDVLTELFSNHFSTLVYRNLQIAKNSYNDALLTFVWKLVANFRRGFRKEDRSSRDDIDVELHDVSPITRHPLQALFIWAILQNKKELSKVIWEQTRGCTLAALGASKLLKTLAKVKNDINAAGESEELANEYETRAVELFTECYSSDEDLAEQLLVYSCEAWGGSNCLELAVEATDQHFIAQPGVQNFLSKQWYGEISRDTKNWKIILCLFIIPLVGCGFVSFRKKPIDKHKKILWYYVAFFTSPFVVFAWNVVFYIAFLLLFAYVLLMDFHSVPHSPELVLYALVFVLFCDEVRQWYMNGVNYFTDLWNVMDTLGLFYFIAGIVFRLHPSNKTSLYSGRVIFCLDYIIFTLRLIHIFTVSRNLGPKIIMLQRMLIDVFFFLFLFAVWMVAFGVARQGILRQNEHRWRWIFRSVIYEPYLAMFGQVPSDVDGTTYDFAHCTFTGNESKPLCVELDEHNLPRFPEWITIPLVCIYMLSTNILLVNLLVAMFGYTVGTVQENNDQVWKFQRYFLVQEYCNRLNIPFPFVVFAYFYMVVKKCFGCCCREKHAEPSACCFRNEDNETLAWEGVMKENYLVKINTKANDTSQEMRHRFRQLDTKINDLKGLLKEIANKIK

SMILES: Cn1nc(C(C)(C)C)c(Cl)c1-c1nc2nc(-c3ccccc3F)ccc2[nH]1 [Compound 33, 2-(5-tert-Butyl-4-chloro-2-methyl-2H-pyrazol-3-yl)-5-(2-fluoro-phenyl)-1H-imidazo[4,5-b]pyridine hydrochloride]
inhibition at 0.2 µM [1]: 98%
IC50 [2]: 40 nM

SMILES: COCCOc1nc(-c2ccccc2C(F)(F)F)cc2nc(-c3c(C#N)c(C(C)(C)C)nn3C)[nH]c12 [Compound 21, 3-tert-Butyl-5-[4-(2-methoxy-ethoxy)-6-(2-trifluoromethyl-phenyl)-3H-imidazo[4,5-c]pyridine-2-yl]-1-methyl-1H-pyrazole-4-carbonitrile benzenesulfonic acid salt]
inhibition at 0.2 µM [1]: 99%
IC50 [2]: 0.69 nM

SMILES: COc1nc(-c2ccccc2Cl)cc2nc(-c3cnn(C(C)(C)C)c3)[nH]c12 [Compound 102, 2-(1-tert-Butyl-1H-pyrazol-4-yl)-6-(2-chloro-phenyl)-4-methoxy-3H-imidazo[4,5-c]pyridine sodium salt]
inhibition at 0.2 µM [1]: 70%
IC50 [2]: 120 nM

SMILES: Cn1nc(C(C)(C)C)c(Cl)c1-c1nc2cc(-c3ccccc3Cl)nc(OCCO)c2[nH]1 [Compound 58, 2-[2-(5-tert-Butyl-4-chloro-2-methyl-2H-pyrazol-3-yl)-6-(2-chloro-phenyl)-3H-imidazo[4,5-c]pyridin-4-yloxy]-ethanol]
inhibition at 0.2 µM [1]: 101%
IC50 [2]: 2 nM

SMILES: CC(C)(C)c1cc(-c2nc3nc(-c4ccccc4C(F)(F)F)cc(C(F)(F)F)c3[nH]2)on1 [Compound 10, 2-(3-tert-Butyl-isoxazol-5-yl)-7-trifluoromethyl-5-(2-trifluoromethyl-phenyl)-1H-imidazo[4,5-b]pyridine]
inhibition at 0.2 µM [1]: 101%
IC50 [2]: 16 nM

inhibition at 0.2 µM [1]: 49%
SMILES: Cn1nc(C(C)(C)C)c(C#N)c1-c1nc2cc(-c3ccccc3C(F)(F)F)nc(OCC(=O)O)c2[nH]1 [Compound 86, [2-(5-tert-Butyl-4-cyano-2-methyl-2H-pyrazol-3-yl)-6-(2-trifluoromethyl-phenyl)-3H-imidazo[4,5-c]pyridin-4-yloxy]-acetic acid]

SMILES: Cn1nc(C(C)(C)C)c(Cl)c1-c1nc2nc(-c3ccccc3C(F)(F)F)ccc2[nH]1 [Compound 32, 2-(5-tert-Butyl-4-chloro-2-methyl-2H-pyrazol-3-yl)-5-(2-trifluoromethyl-phenyl)-1H-imidazo[4,5-b]pyridine hydrochloride]
inhibition at 0.2 µM [1]: 100%
IC50 [2]: 7.6 nM

inhibition at 0.2 µM [1]: 36%
SMILES: COc1cc(-c2ccccc2C(F)(F)F)nc2nc(-c3onc(C(C)(C)C)c3C#N)[nH]c12 [Compound 70, 3-tert-Butyl-5-[7-methoxy-5-(2-trifluoromethyl-phenyl)-1H-imidazo[4,5-b]pyridin-2-yl]-isoxazole-4-carbonitrile methanesulfonic acid salt]

inhibition at 0.2 µM [1]: 67%
SMILES: Cc1nc(-c2ccccc2C(F)(F)F)nc2nc(-c3cc(C(C)(C)C)nn3C)[nH]c12 [Compound 35, 8-(5-tert-Butyl-2-methyl-2H-pyrazol-3-yl)-6-methyl-2-(2-trifluoromethyl-phenyl)-7H-purine trifluoroacetic acid salt]

SMILES: Cn1nc(C(C)(C)C)c(C#N)c1-c1nc2cc(-c3ccccc3C(F)(F)F)ncc2[nH]1 [Compound 45, 3-tert-Butyl-1-methyl-5-[6-(2-trifluoromethyl-phenyl)-3H-imidazo[4,5-c]pyridin-2-yl]1H-pyrazole-4-carbonitrile hydrochloride]
inhibition at 0.2 µM [1]: 98%
IC50 [2]: 27 nM

SMILES: Cn1nc(C(C)(C)C)c(C#N)c1-c1nc2cc(-c3ccccc3F)ncc2[nH]1 [Compound 44, 3-tert-Butyl-5-[6-(2-fluoro-phenyl)-3H-imidazo[4,5-c]pyridin-2-yl]-1-methyl-1H-pyrazole-4-carbonitrile hydrochloride]
inhibition at 0.2 µM [1]: 98%
IC50 [2]: 37 nM

inhibition at 0.2 µM [1]: 32%
SMILES: Cn1nc(C(C)(C)C)c(C#N)c1-c1nc2cc(-c3ccccc3Cl)nc(OCC(=O)O)c2[nH]1 [Compound 85, [2-(5-tert-Butyl-4-cyano-2-methyl-2H-pyrazol-3-yl)-6-(2-chloro-phenyl)-3H-imidazo[4,5-c]pyridin-4-yloxy]-acetic acid]

SMILES: Cn1nc(C(C)(C)C)c(Cl)c1-c1nc2cc(-c3ccccc3C(F)(F)F)nc(OCCO)c2[nH]1 [Compound 57, 2-[2-(5-tert-Butyl-4-chloro-2-methyl-2H-pyrazol-3-yl)-6-(2-trifluoromethyl-phenyl)-3H-imidazo[4,5-c]pyridin-4-yloxy]-ethanol]
inhibition at 0.2 µM [1]: 101%
IC50 [2]: 1.6 nM

SMILES: CN(C)CCOc1nc(-c2ccccc2Cl)cc2nc(-c3c(Cl)c(C(C)(C)C)nn3C)[nH]c12 [Compound 56, {2-[2-(5-tert-Butyl-4-chloro-2-methyl-2H-pyrazol-3-yl)-6-(2-chloro-phenyl)-3H-imidazo[4,5-c]pyridin-4-yloxy]-ethyl}-dimethyl-amine]
inhibition at 0.2 µM [1]: 99%
IC50 [2]: 24 nM

SMILES: Cn1nc(C(C)(C)C)c(Cl)c1-c1nc2nc(-c3ccccc3C(F)(F)F)cc(C(F)(F)F)c2[nH]1 [Compound 1]
% Inh @ 0.2 μM [1]: 99%
IC50 [2]: 27 nM

SMILES: Cn1nc(C(C)(C)C)c(Cl)c1-c1nc2cc(-c3ccccc3C(F)(F)F)nc(Cl)c2[nH]1 [Compound 71, 2-(5-tert-Butyl-4-chloro-2-methyl-2H-pyrazol-3-yl)-4-chloro-6-(2-trifluoromethyl-phenyl)-3H-imidazo[4,5-c]pyridine Hydrochloride]
inhibition at 0.2 µM [1]: 100%
IC50 [2]: 8.8 nM

inhibition at 0.2 µM [1]: 99%
SMILES: Cn1nc(C(C)(C)C)c(Cl)c1-c1nc2nc(-c3ccccc3C(F)(F)F)cc(Cl)c2[nH]1 [compound 5, hydrochloride]

SMILES: Cn1nc(C(C)(C)C)c(Cl)c1-c1nc2cc(-c3ccccc3C(F)(F)F)nc(OCC(F)(F)F)c2[nH]1 [Compound 19, 2-(5-tert-Butyl-4-chloro-2-methyl-2H-pyrazol-3-yl)-4-(2,2,2-trifluoroethoxy)-6-(2-trifluoromethyl-phenyl)-3H-imidazo[4,5-c]pyridine methanesulfonic acid salt]
inhibition at 0.2 µM [1]: 100%
IC50 [2]: 0.84 nM

SMILES: COc1nc(-c2ccccc2C(F)(F)F)cc2[nH]c(-c3onc(C(C)(C)C)c3C#N)nc12 [Compound 13, 3-tert-Butyl-5-[4-methoxy-6-(2-trifluoromethyl-phenyl)-1H-imidazo[4,5-c]pyridine-2-yl]-isoxazole-4-carbonitrile methanesulfonic acid salt]
inhibition at 0.2 µM [1]: 94%
IC50 [2]: 46 nM

SMILES: COc1nc(-c2ccccc2C(F)(F)F)cc2nc(-c3c(F)c(C(C)(C)C)nn3C)[nH]c12 [Compound 78, 2-(5-tert-Butyl-4-fluoro-2-methyl-2H-pyrazol-3-yl)-4-methoxy-6-(2-trifluoromethyl-phenyl)-3H-imidazo[4,5-c]pyridine methanesulfonic acid salt]
inhibition at 0.2 µM [1]: 100%
IC50 [2]: 16 nM

SMILES: Cn1nc(C(C)(C)C)c(Cl)c1-c1nc2nc(-c3ccccc3C(F)(F)F)cnc2[nH]1 [Compound 95, 2-(5-tert-butyl-4-chloro-2-methyl-2H-pyrazol-3-yl)-6-(2-trifluoromethyl-phenyl)-1H-imidazo[4,5-b]pyrazine]
inhibition at 0.2 µM [1]: 100%
IC50 [2]: 27 nM

SMILES: Cn1nc(C(C)(C)C)cc1-c1nc2nc(-c3ccccc3Cl)ccc2[nH]1 [Compound 27, 2-(5-tert-Butyl-2-methyl-2H-pyrazol-3-yl)-5-(2-chloro-phenyl)-1H-imidazo[4,5-b]pyridine]
inhibition at 0.2 µM [1]: 73%
IC50 [2]: 124 nM

SMILES: Cn1nc(C(C)(C)C)c(Cl)c1-c1nc2cc(-c3ccccc3Cl)nc(OCC(F)(F)F)c2[nH]1 [Compound 89, 2-(5-tert-Butyl-4-chloro-2-methyl-2H-pyrazol-3-yl)-6-(2-chlorophenyl)-4-(2,2,2-trifluoro-ethoxy)-3H-imidazo[4,5-c]pyridine sodium salt]
inhibition at 0.2 µM [1]: 100%
IC50 [2]: 0.53 nM

SMILES: CC(C)(C)c1cc(-c2nc3nc(-c4ccccc4OC(F)(F)F)ccc3[nH]2)on1 [Compound 29, 2-(3-tert-Butyl-isoxazole-5-yl)-5-(2-trifluoromethoxy-phenyl)-1H-imidazo[4,5-b]pyridine]
inhibition at 0.2 µM [1]: 99%
IC50 [2]: 33 nM

SMILES: Cl.Cn1nc(C(C)(C)C)cc1-c1nc2cc(-c3ccccc3C(F)(F)F)ncc2[nH]1 [Compound 40, 2-(5-tert-Butyl-2-methyl-2H-pyrazol-3-yl)-6-(2-trifluoromethyl-phenyl)-3H-imidazo[4,5c]pyridine hydrochloride]
% Inh @ 0.2 μM: 86%
IC50: 59 nM

SMILES: Cn1nc(C(C)(C)C)c(C#N)c1-c1nc2cc(-c3ccccc3C(F)(F)F)nc(OCCO)c2[nH]1 [Compound 84, 3-tert-Butyl-5-[4-(2-hydroxy-ethoxy)-6-(2-trifluoromethyl-phenyl)-3H-imidazo[4,5-c]pyridin-2-yl]-1-methyl-1H-pyrazole-4-carbonitrile]
inhibition at 0.2 µM [1]: 100%
IC50 [2]: 1.9 nM
